Assay results reported in patent publication US7973012B2, “C-phenyl glycitol compound” (Taisho Pharmaceutical Co., Ltd, priority 2006, dated 2011).

Experiments:
[1] = tested on: Streptozotocin diabetic model rats; assay: Oral glucose tolerance test in streptozotocin diabetic model rats; format: in vivo; conditions: Rattus norvegicus; STZ diabetic SD/IGS rats; 1 mg/kg oral, glucose 2 g/kg oral 5 minutes later; decrease rate of ΔAUC 0-1 h vs control group; read-out: STZ rats-OGTT(2 g/kg) % inhibition ΔAUC0-1 h(mgh/dL) @1 mg/kg
Experimental: 7-week-old SD/IGS rats (from CHARLES RIVER LABORATORIES JAPAN, INC., male) were fasted for about 16 hours. Then to these rats under etherization were administered 50 mg/kg of streptozotocin (STZ) via the tail vein to prepare diabetic model rats. Similarly, to rats under etherization were administered 1 mL/kg physiological saline containing 1.25 mmol/L of citric acid via tail veins to prepare normal control rats. One week (8 weeks old) after administration of STZ or 1.25 mmol/L citric acid physiological saline, the rats were subjected to oral glucose tolerance test.
After the rats were fasted for about 16 hours, the medicament (1 mg/kg) suspended in a 0.5% carboxymethyl cellulose (CMC) aqueous solution was orally administered to a medicament treated group, and only a 0.5% aqueous solution of CMC was orally administered to a control group. At 5 minutes after the administration, a glucose solution (2 g/kg) was orally administered to each rat, and blood was collected at 5 points in total: before the administration (0 time), after 0.25, 0.5, 1 and 2 hours after the oral administration.
The blood was collected from the orbital sinus venosus of each rat under etherization with a heparin-coated blood collection tube and centrifuged, and then blood plasma was separated. The concentration of glucose in the blood plasma was determined with Glucose CII Test Wako from Wako Pure Chemical Industries, Ltd. As for the intensity of inhibitory effect on elevation of blood glucose level, area under the blood glucose level curve (AUC) was calculated by the trapezoidal rule based on the blood glucose levels of the medicament treated group from 0 time to 1 hour time. And a basal value is subtracted from AUC to describe the intensity as area under the blood glucose level increment (ΔAUC) and describe the intensity as a decrease rate from the ΔAUC of the control group.

human SGLT2 = biological target: T1, human SGLT2 (Homo sapiens, UniProt P31639); assay: Inhibition test of sodium-dependent sugar uptake in CHO-k1 cells stably expressing human SGLT2; format: cell-based; conditions: CHO-k1 cells expressing human SGLT2; [14C]methyl α-D-glucopyranoside uptake, 37° C., an hour
T1 construct: expressed in transfected cells; host or cells: CHO-k1
T1 sequence (P31639 1-672): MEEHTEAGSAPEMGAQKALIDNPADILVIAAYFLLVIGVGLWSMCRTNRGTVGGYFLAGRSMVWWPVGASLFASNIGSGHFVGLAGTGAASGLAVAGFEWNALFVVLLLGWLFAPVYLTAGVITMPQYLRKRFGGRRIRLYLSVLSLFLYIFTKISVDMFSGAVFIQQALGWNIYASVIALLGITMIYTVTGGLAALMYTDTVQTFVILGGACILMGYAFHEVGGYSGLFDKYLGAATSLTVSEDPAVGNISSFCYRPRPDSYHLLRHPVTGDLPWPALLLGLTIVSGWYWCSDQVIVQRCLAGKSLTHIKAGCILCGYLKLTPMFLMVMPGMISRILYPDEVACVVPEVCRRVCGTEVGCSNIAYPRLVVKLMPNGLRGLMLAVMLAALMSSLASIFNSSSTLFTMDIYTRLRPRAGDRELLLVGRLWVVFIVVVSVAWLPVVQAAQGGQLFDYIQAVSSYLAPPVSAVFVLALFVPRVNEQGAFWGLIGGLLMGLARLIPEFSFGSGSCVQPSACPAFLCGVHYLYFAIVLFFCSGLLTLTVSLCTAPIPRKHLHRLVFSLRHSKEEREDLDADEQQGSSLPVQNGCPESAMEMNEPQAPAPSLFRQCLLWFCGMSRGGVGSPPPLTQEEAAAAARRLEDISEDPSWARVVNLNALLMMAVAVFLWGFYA
Method in brief: (§1)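 CHO-k1 cells stably expressing the human transporter were preincubated 20 min in Na-free choline buffer, then given compound in NaCl uptake buffer with 1 mM [14C]methyl α-D-glucopyranoside (pH 7.4) at 37 °C for 30 min (SGLT1) or 1 h (SGLT2). Radioactivity uptake was compared with compound-free control; IC50 came from 6 concentrations.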

human SGLT1 = biological target: T2, human SGLT1 (Homo sapiens, UniProt P13866); assay: Inhibition test of sodium-dependent sugar uptake in CHO-k1 cells stably expressing human SGLT1; format: cell-based; conditions: CHO-k1 cells expressing human SGLT1; [14C]methyl α-D-glucopyranoside uptake, 37° C., 30 minutes
T2 construct: expressed in transfected cells; host or cells: CHO-k1
T2 sequence (P13866 1-664): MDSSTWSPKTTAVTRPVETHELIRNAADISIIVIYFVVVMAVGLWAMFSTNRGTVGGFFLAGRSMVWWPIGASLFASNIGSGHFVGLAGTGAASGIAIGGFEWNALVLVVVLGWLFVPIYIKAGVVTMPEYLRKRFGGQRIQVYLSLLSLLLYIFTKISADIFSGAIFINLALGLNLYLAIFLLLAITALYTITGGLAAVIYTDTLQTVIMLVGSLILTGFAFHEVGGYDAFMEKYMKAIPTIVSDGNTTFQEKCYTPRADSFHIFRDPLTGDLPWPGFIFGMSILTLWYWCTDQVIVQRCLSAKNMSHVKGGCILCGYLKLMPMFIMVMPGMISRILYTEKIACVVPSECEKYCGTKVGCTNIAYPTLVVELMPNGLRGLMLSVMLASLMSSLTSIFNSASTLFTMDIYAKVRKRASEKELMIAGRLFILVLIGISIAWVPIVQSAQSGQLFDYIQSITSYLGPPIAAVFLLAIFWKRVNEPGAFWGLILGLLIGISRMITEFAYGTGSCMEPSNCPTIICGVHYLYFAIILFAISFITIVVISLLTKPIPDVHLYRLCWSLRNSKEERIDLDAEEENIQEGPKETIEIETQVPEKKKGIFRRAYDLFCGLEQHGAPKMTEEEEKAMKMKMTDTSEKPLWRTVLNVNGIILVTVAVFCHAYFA
Method in brief: as §1

IC50 (human SGLT2) [nM] | IC50 (human SGLT1) [nM] | SMILES | inhibition in vivo at 1 mg/kg [1] [%]
23 | 51 | Cc1cc(O)c([C@@H]2O[C@H](CO)[C@@H](O)[C@H](O)[C@H]2O)cc1Cc1ccc(CCNC(=O)NC(C)(C)CO)cc1 [Compound 10, (1S)-1,5-anhydro-1-[5-[4-[2-[[(2-hydroxy-1,1-dimethylethyl)aminocarbonyl]amino]ethyl]benzyl]-2-hydroxy-4-methylphenyl]-D-glucitol] | 67.8
34 | 59 | Cc1cc(O)c([C@@H]2O[C@H](CO)[C@@H](O)[C@H](O)[C@H]2O)cc1Cc1ccc(CCNC(=O)NC(CO)(CO)CO)cc1 [Compound 11, (1S)-1,5-anhydro-1-[5-[4-[2-[[[2-hydroxy-1,1-bis(hydroxymethyl)ethyl]aminocarbonyl]amino]ethyl]benzyl]-2-hydroxy-4-methylphenyl]-D-glucitol] | 69.3
48 | 113 | Cc1cc(O)c([C@@H]2O[C@H](CO)[C@@H](O)[C@H](O)[C@H]2O)cc1Cc1ccc(CCNC(=O)NC(C)(C)C(=O)N2CCN(C)CC2)cc1 [Compound 12, (1S)-1,5-anhydro-1-[5-[4-[2-[[[1-[1-(4-methylpiperazin-1-yl)carbonyl]-1-(methyl)ethyl]aminocarbonyl]amino]ethyl]benzyl]-2-hydroxy-4-methylphenyl]-D-glucitol] | 48.8
